# From ChEMBL document CHEMBL4364328, “Inhibition of ACSS2 for Treatment of Cancer and Neuropsychiatric Diseases” (ACS Med Chem Lett, 2019)
# Target: Acetyl-coenzyme A synthetase, cytoplasmic (Homo sapiens, UniProt Q9NR19)
# Assay: Inhibition of ACSS2 in human MDA-MB-468 cells assessed as 13C-acetate incorporation incubated for 5 hrs measured under hypoxic conditions by LCMS analysis
# Format: cell-based
# Chain of Acetyl-coenzyme A synthetase, cytoplasmic (Q9NR19 whole entry): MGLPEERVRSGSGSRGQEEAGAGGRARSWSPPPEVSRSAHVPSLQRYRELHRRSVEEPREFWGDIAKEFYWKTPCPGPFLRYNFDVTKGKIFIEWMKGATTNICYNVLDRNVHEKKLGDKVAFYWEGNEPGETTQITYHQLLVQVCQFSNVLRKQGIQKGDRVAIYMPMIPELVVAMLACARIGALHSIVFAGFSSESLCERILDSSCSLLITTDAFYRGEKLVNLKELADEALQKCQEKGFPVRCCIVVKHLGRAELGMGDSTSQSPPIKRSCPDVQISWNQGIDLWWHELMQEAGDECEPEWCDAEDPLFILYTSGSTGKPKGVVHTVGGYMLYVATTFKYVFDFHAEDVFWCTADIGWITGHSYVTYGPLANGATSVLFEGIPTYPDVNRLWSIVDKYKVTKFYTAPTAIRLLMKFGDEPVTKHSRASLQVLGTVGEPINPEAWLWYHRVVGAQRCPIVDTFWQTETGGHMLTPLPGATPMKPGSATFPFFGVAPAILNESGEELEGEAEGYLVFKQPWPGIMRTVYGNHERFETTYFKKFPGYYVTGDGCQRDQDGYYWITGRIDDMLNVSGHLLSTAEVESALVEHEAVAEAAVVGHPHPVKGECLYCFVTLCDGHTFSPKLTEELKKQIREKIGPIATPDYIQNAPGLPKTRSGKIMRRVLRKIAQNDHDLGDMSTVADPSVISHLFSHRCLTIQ
row,Compound,IC50 [nM]
1,COc1ccc(N2N=C(C)C(C(=O)Nc3cccc(C(C)(F)F)c3)C2=O)cn1 (stereo unspecified),5
2,CCC(F)(F)c1cccc(NC(=O)C2C(=O)N(c3ccc(OC)cc3)N=C2C)c1 (stereo unspecified),0.463
3,COC(=O)c1cccc(N2N=C(C)C(C(=O)Nc3cccc(-c4ccco4)c3)C2=O)c1 (stereo unspecified),2.1
4,CC1=NN(c2ccccc2)C(=O)C1C(=O)Nc1cccc(C(C)(F)F)c1 (stereo unspecified),4
5,COc1ccc(N2N=C(C)C(C(=O)Nc3cccc(C(C)(F)F)c3)C2=O)cc1-c1ncco1 (stereo unspecified),1.1
6,COc1ccc(N2N=C(C)C(C(=O)Nc3cccc(-c4ccco4)c3)C2=O)cn1 (stereo unspecified),3.9
7,COc1ccc(N2N=C(C)C(C(=O)Nc3cccc(C(C)(F)F)c3)C2=O)cc1OC (stereo unspecified),1
8,COc1ccc(N2N=C(C)C(C(=O)Nc3cccc(C(C)(F)F)c3)C2=O)cc1 (stereo unspecified),4.5
9,COc1ccc(N2N=C(C)C(C(=O)Nc3cccc(-c4ccco4)c3)C2=O)cc1 (stereo unspecified),3.2
10,CC1=NN(c2ccc(OC(F)F)c(-c3cccnc3)c2)C(=O)C1C(=O)Nc1cccc(C(C)(F)F)c1 (stereo unspecified),0.33
11,CC1=NN(c2ccc(OC(F)F)cc2)C(=O)C1C(=O)Nc1cccc(C(C)(F)F)c1 (stereo unspecified),2.66
